Where “and” joins values, the source holds several entries; their conditions need not be identical. Identical values can stand only once. Entries after “also recorded” stand apart in the source; their conditions may differ. Like-named read-outs stand apart in the source and are kept apart here.
Columns and labels:
[1] = mouse, in vivo
in vivo = conditions: mouse, po
[2] = test system: H5N1 strain A/Mallard/Bavaria/1/2006; assay: microbe, parasite or virus in culture; assay type: cell-based, influenza A virus; conditions: for EC50: read-out: EC50 (concentration required to reduce the virus titer to 50%)
[3] = cited from earlier work
[4] = test system: highly pathogenic influenza virus; set-up: species or system C57BL/6 mice; conditions: mouse, in vivo
[5] = test system: influenza virus strain (H5N1; MB1); conditions: mouse, in vivo
[6] = test system: H5N1 influenza virus A/Mallard/Bavaria/1/2006
[7] = test system: caspase activation (PARP cleavage)
[8] = test system: A/FPV/Bratislava/79 (H7N7) viral proteins M1, NP, NS1, PB1
[9] = test system: A/Regensburg/D6/2009 H1N1pdm09 strain
[10] = test system: vRNP complexes of H5N1 A/Thailand/KAN-1/2004
[11] = test system: influenza virus strain A/FPV/Bratislava/79 (H7N7); conditions: mouse

CC(=O)Oc1ccccc1C(=O)O [ASA, Acetylsalicylic acid]
AUC and Cmax, plasma compared to lung homogenate [1]: about four-fold higher in plasma | AUC ([1]; iv): 0.0781 mg⋅h/L | Plasma clearance ([1]; iv): high | Terminal half-lives ([1]; iv): short | Volume of distribution at steady state ([1]; iv): moderate | AUC ([1]; po, 15 mg/kg): 0.0688 mg⋅h/L | t1/2 ([1]; po, 15 mg/kg): 4.54 min | bioavailability (in vivo): ~10% | bioavailability (in vivo; 15 mg/kg): 10.3% | half-life (in vivo; 15 mg/kg, t1/2): 8.64 min | Antiviral effect on virus titers over time [2]: less potent compared to BAY 81-8781; also recorded: An antiviral effect was also found with ASA (gray triangles) and SA (open triangle) 24 h and 32 h post-infection which, however, was leveled-out at the 48 h time-point | EC50 ([2]; Influenza A virus, H5N1, A549, in Anas platyrhynchos): 170 ± 50 µM | Stability in plasma [3]: not stable in plasma

D,L-lysine acetylsalicylate ⋅ glycine [BAY 81-8781]
TNFα induced activation of TRAIL mRNA (TRAIL mRNA expression): significantly reduced | Day of death (p.i.) [4]: 8.8 days p.i. and 8.8 ± 1.3 days p.i. | Delay of death of non-protected mice compared to solvent animals [4]: 2 days | Survival (survival/total) [4]: 4/8 | Weight loss and disease symptoms [4]: either showed no or only slight weight loss and marginal disease symptoms | Disease progression (symptom score) [5]: rather moderate | Mice protected from death [5]: 87.5% and 62.5% | Mice protected from death (protected/total) [5]: 5/8 | Weight loss [5]: only a moderate weight loss | Antiviral effect on virus titers over time [2]: strong and sustained reduction of virus titers at all time-points; also recorded: even stronger reduction of virus titers at all time-points | EC50 [2]: 160 ± 60 µM | Antiviral effect, compound present for 30 min or 1 h [6]: no antiviral effects were found | Antiviral effect, compound present for 2 h or 4 h [6]: a dose dependent antiviral effect was found | Virus titer reduction [6]: > 80% | Cleavage of caspase substrate PARP [7]: reduces the cleavage of the major caspase substrate PARP | Accumulation of viral proteins [8]: does not impact accumulation of viral proteins | Reduction of virus propagation [9]: effective to reduce virus propagation | Release of vRNPs from the nucleus [10]: strongly retained and accumulated in the nucleus | EC50 in vivo (concentration of inhaled BAY 81-8781 solution) [11]: 1.56% and 1.5% | Reduction of lung virus titers, oral route ([11]; in vivo): no reduction of virus titers was found

salicylate
AUC and Cmax, plasma compared to lung homogenate [1]: about four-fold higher in plasma | Cmax, plasma compared to lung [1]: about three-fold higher in plasma than in lung | AUC in plasma, SA compared to ASA ([1]; iv): about 25 fold | AUCnorm ([1]; iv): 5.28 kg⋅h/L | Cmax in plasma, SA compared to ASA ([1]; iv): ~2.5 fold | AUC ([1]; po): 15.3 mg⋅h/L | Cmax ([1]; po): 12500 ng/mL | Antiviral effect on virus titers over time [2]: No antiviral effect; also recorded: An antiviral effect was also found with ASA (gray triangles) and SA (open triangle) 24 h and 32 h post-infection which, however, was leveled-out at the 48 h time-point | EC50 [2]: 700 ± 40 µM
